Assay [1] concerns α-amylase. Description: Native electrophoretic α-amylase isoenzyme pattern (PAGE). Conditions: standard enzyme treated with 100 µg/mL. Format: biochemical. How it is done: (§1) The relative mobility (Rf), band quantity (Qty) and band percent (B%) of the electrophoretically detected isoenzyme types on the PAGE plate were determined using the Quantity One software program (version 4.6.2). The equation proposed by Nei and Li[39] was used to calculate the percentages of similarity index (SI%) and physiological difference (Diff%).

Assay [2] relates to α-glucosidase. Put plainly: SDS-PAGE electrophoretic α-glucosidase pattern. Format: biochemical. Conditions: 100 µg/mL. The protocol:
as §1

For assay [3], the system named is α-glucosidase. Description: α-Glucosidase enzyme inhibition assay. The class given is biochemical. How it is done:
(§2) All in vitro biological activities of the limonoids-rich extract and the isolated compounds were assayed in triplicate at three different concentrations (50, 100, and 200 µg/mL).
(§3) The IC50 of each tested sample was determined by plotting a curve using a series of sample concentrations against the percent of enzyme inhibition.

For assay [4], the system named is α-amylase. Description: α-Amylase enzyme inhibition assay. The class given is biochemical. The protocol: as §2, §3
Assay [5] can be described thus: Total antioxidant capacity (TAC), method of Prieto et al. The protocol: as §2
The method proposed by Prieto et al.[30] was used to determine the total antioxidant capacity (TAC) expressed as mg […] equivalent per gram weight, using ascorbic acid at the same concentrations as a standard.

Assay [6] in a line: Nitric oxide (NO) radical scavenging activity (Griess Illosvory reagent). The protocol: as §2
The nitric oxide (NO) radical scavenging activity was estimated by the reaction with Griess Illosvory reagent based on the method proposed by Chakraborthy[34]. The NO scavenging capacities of the samples were compared with that of ascorbic acid. The percent inhibition of the NO radical was calculated. The IC50 of each tested sample was determined by plotting a curve using a series of sample concentrations against the percent of NO inhibition.
In general terms: Griess reagent forms a coloured azo dye with nitrite.

Assay [7] is described as follows: ABTS radical scavenging assay. How it is done: as §2
The ABTS scavenging capacities of the samples were compared with that of ascorbic acid. The percent inhibition of the ABTS radical was calculated. The IC50 of each tested sample was determined by plotting a curve using a series of sample concentrations against the percent of ABTS inhibition.

Assay [8] in a line: DPPH radical scavenging activity. The protocol:
as §2
The 1,1-Diphenyl-2-picryl-hydrazyl (DPPH) radical scavenging activity was evaluated using the method described by Rahman et al.[32]. Ascorbic acid was used as a positive control at the same concentrations. The inhibition percentage of the DPPH free radical was calculated. The median inhibitory concentration (IC50) of each tested sample was determined by plotting a curve using a series of sample concentrations against the percentage of DPPH inhibition.
(DPPH is a stable violet radical that fades when it is reduced.)

Assay [9] in a line: Iron reducing power (IRP), method of Oyaizu.

From article PMC11401861, “Assessment of the in vitro anti-diabetic activity with molecular dynamic simulations of limonoids isolated from Adalia lemon peels” (Scientific Reports, 2024) come the findings set out here.

Converted amounts (≈) assume the structure as drawn.

As to `C[C@H]1O[C@H](O[C@H]2[C@H](O)[C@@H](O)[C@@H](O[C@H]3[C@H](O)[C@@H](O)C(O)O[C@@H]3CO)O[C@@H]2CO)[C@H](O)[C@@H](O)[C@@H]1N[C@H]1C=C(CO)[C@@H](O)[C@H](O)[C@H]1O` (stereo partly shown) [Acarbose, acarbose, reference compound], the “Change in electrophoretic α-amylase isoenzyme pattern” value in the assay on α-amylase [1] is “complete denaturation”. Besides, the “Change in electrophoretic α-glucosidase pattern” value in the assay on α-glucosidase [2] is listed as “complete denaturation”. The “α-Glucosidase Inhibition (%)” value in the assay with α-glucosidase [3] (sample concentration 50 µg/mL) was found to be 17.69 ± 0.08%; with α-glucosidase [3] (sample concentration 100 µg/mL), 29.73 ± 0.13%; in the assay with α-glucosidase [3] (sample concentration 200 µg/mL) it was 52.92 ± 0.23%. In addition, the results for the “α-Amylase Inhibition (%)” value with α-amylase [4] (sample concentration 50 µg/mL), in the assay with α-amylase [4] (sample concentration 100 µg/mL) and in the assay with α-amylase [4] (sample concentration 200 µg/mL) were 21.84 ± 0.08%, 37.12 ± 0.13% and 66.07 ± 0.23%, respectively.

With `O=C1O[C@H]([C@@H](O)CO)C(O)=C1O` [Ascorbic Acid, ascorbic acid, reference compound], the figures for the TAC in [5] (sample concentration 50 µg/mL), in [5] (sample concentration 100 µg/mL) and in [5] (sample concentration 200 µg/mL) were 30.09 ± 0.08 mg gallic acid/g, 53.56 ± 0.14 mg gallic acid/g and 95.34 ± 0.25 mg gallic acid/g, respectively. Further, the “IC50 against NO radical” value in assay [6] (Fig. 2a) worked out at 5.17 ± 0.03 µg/mL (≈ 29.4 µM). Also, the “NO Inhibition (%)” value in [6] (sample concentration 50 µg/mL) was 21.02 ± 0.07%; in assay [6] (sample concentration 100 µg/mL) it was 36.27 ± 0.11%; in assay [6] (sample concentration 200 µg/mL), 64.55 ± 0.20%. The “IC50 against ABTS radical” value in [7] (Fig. 2a) is reported as 4.17 ± 0.02 µg/mL (≈ 23.7 µM). The “ABTS Inhibition (%)” value is 24.94 ± 0.08% in assay [7] (sample concentration 50 µg/mL), 42.64 ± 0.13% in assay [7] (sample concentration 100 µg/mL) and 75.90 ± 0.23% in assay [7] (sample concentration 200 µg/mL). In assay [8] (Fig. 2a), the “IC50 against DPPH radical” value is reported as 4.74 ± 0.02 µg/mL (≈ 26.9 µM). The “DPPH Inhibition (%)” value is recorded as 26.17 ± 0.07% in assay [8] (sample concentration 50 µg/mL), 45.43 ± 0.11% in assay [8] (sample concentration 100 µg/mL) and 80.87 ± 0.20% in [8] (sample concentration 200 µg/mL). For the same compound, the IRP in assay [9] (sample concentration 50 µg/mL) is 23.95 ± 0.07 µg/mL; in [9] (sample concentration 100 µg/mL) it was 42.64 ± 0.13 µg/mL; in assay [9] (sample concentration 200 µg/mL), 75.90 ± 0.23 µg/mL.

As to `CC1(C)O[C@H]2CC(=O)OC[C@]23[C@H]2CC[C@@]4(C)[C@H](c5ccoc5)OC(=O)[C@H]5O[C@]54[C@]2(C)C(=O)C[C@@H]13` [Cpd1, limonin], the “Change in electrophoretic α-amylase isoenzyme pattern” value in the assay on α-amylase [1] is on record as “no qualitative or quantitative variations”. Besides, the “Diff% (physiological difference) of electrophoretic α-amylase pattern from the standard enzyme” value in the assay on α-amylase [1] is 0.00%. The “SI% (similarity index) of electrophoretic α-amylase pattern to the standard enzyme” value in the assay with α-amylase [1] is listed as 100.00%. The TAC in [5] (sample concentration 50 µg/mL) is recorded as 12.77 ± 0.03 mg gallic acid/g; in [5] (sample concentration 100 µg/mL) it was 22.73 ± 0.04 mg gallic acid/g; in [5] (sample concentration 200 µg/mL), 40.46 ± 0.08 mg gallic acid/g. Moreover, the “Diff% (decrease in the quantity of the identified α-glucosidase band)” value with α-glucosidase [2] was determined as 3.83%. For the same compound, the “Qty (band quantity) of the α-glucosidase band” value with α-glucosidase [2] worked out at 17.95. Besides, the entries for the “NO Inhibition (%)” value in [6] (sample concentration 50 µg/mL), in assay [6] (sample concentration 100 µg/mL) and in assay [6] (sample concentration 200 µg/mL) were 5.95 ± 0.02%, 10.60 ± 0.04% and 18.87 ± 0.07%, respectively. Besides, the “ABTS Inhibition (%)” value in assay [7] (sample concentration 50 µg/mL) amounted to 7.62 ± 0.03%; in [7] (sample concentration 100 µg/mL) it was 13.56 ± 0.04%; in assay [7] (sample concentration 200 µg/mL), 24.14 ± 0.08%. In addition, the results for the “DPPH Inhibition (%)” value in [8] (sample concentration 50 µg/mL), in [8] (sample concentration 100 µg/mL) and in [8] (sample concentration 200 µg/mL) were 11.10 ± 0.02%, 19.77 ± 0.04% and 35.18 ± 0.07%, respectively. Also, the “α-Glucosidase Inhibition (%)” value is 1.37 ± 0.03% with α-glucosidase [3] (sample concentration 50 µg/mL), 2.44 ± 0.04% with α-glucosidase [3] (sample concentration 100 µg/mL) and 4.34 ± 0.08% in the assay on α-glucosidase [3] (sample concentration 200 µg/mL). For the same compound, the IRP in [9] (sample concentration 50 µg/mL) is given as 7.62 ± 0.03 µg/mL; in assay [9] (sample concentration 100 µg/mL), 13.56 ± 0.04 µg/mL; in assay [9] (sample concentration 200 µg/mL), 24.14 ± 0.08 µg/mL. The “α-Amylase Inhibition (%)” value in the assay with α-amylase [4] (sample concentration 50 µg/mL) was 4.52 ± 0.03%; with α-amylase [4] (sample concentration 100 µg/mL) it was 8.05 ± 0.04%; in the assay with α-amylase [4] (sample concentration 200 µg/mL), 14.32 ± 0.08%.
